Experimental data: patent US9987254B2, “Ophthalmic composition for correcting presbyopia” (Eurocanarias Oftalmológica, S.L., priority 2013, dated 2018)

Legend:
[1] = cited from earlier work
[2] = test system: presbyopia; test: Study in presbyopia patients over 40 years old, non-dominant eye treated, single daily application; type: in vivo, human; details: bromfenac combined with pilocarpine
Excerpt: The study carried out by the present invention is based on a composition distinct from Dr. Benotzzi's, as well as on other selection criteria as regards patients, exclusively including patients over 40 years old with evident signs of clear presbyopia with a refractive defect among −0.50 of myopia and +0.75 of hyperopia with a maximum astigmatism of −0.75, in addition to their corresponding age-based presbyopia. Here, only those patients with the following characteristics were considered ideal candidates: an ACD (Anterior Chamber […] of the eye) greater than 2.5 mm, a White-to-White (horizontal diameter) greater than 11.4 mm and a value of photopic pupils higher than 3 mm. and of scotopic pupils lower than 6.5 mm, plus a correct convergence and binocularity and a density of the eye crystal lower than 25 measured with Pentacam. Additionally, only the non-dominant eye has been always treated, a situation that is not reflected in the studies of Dr. Benozzi, although we have evidence that recommends the use in both eyes. […]

[3] = test system: prostaglandin synthesis at the level of ciliary body and the iris; details: in vitro; cited from earlier work
[4] = after instillation on the ocular surface

For `Nc1c(CC(=O)O)cccc1C(=O)c1ccc(Br)cc1` [bromfenac sodium sesquihydrate], the “concentrations in aqueous humor remained” value [1, 4] is given as “over 12 hours”, the “measurable levels in the major ocular tissues” value [1, 4] is given as ≤ 24 h and the “passage through the human cornea” value ([1]; human cornea) is given as “efficiently pass through the human cornea”.
For `Nc1c(CC(=O)O)cccc1C(=O)c1ccc(Br)cc1` [bromfenac], the “parasympathomimetic action of pilocarpine” value ([2]; compared with diclofenac of Dr. Benozzi's formula) is given as “significantly extends”, the “depth of focus of the treated eye” value ([2]; non-dominant eye treated) is given as “significant increase” and the “inhibition of prostaglandin synthesis” value [3] is given as “inhibits prostaglandin synthesis”.
